Here are results for 1 compound from patent US11925617B2 (priority 2005, dated 2024).

The term inhibition denotes the drop in the measured response relative to a control, in per cent.

One experiment deals with SCC VII cells. The class given is cell-based, murine.
Another experiment has as its system HT29 cells. The class given is cell-based, Human.
The subject of experiment [1] is HL60 bcl-2 cells. It is filed as cell-based.
The next experiment concerns bcl-2 protein. The class given is cell-based.
The test system of experiment [2] is HL60 neo cells. The class given is cell-based.
The subject of experiment [3] is HL60 bcl-2 cells. Nature of the experiment: cells. The class given is cell-based.
Experiment [4] concerns HL60 neo cells. The experiment in a line: cells. The class given is cell-based. The following applies: Homo sapiens, HL-60, 240 h, read-out: inhibition of cell growth.

A value given as a limit tells only on which side of the number the result lay.

Take `O=C(CBr)N1CC([N+](=O)[O-])([N+](=O)[O-])C1` [ABDNAZ]: in the experiment with SCC VII cells, the “intracellular ROS generation, combined treatment of ABDNAZ and radiation” value was “synergistically induced intracellular ROS generation”; the “levels of ROS compared with HT29 cells” value is “significantly higher than that induced in HT29 cells”; the “production of ROS” value is “dose, time and cell line dependent”; the “time of peak ROS production” value came out at 2 h. Further, in the experiment on HT29 cells, the “intracellular ROS generation, combined treatment of ABDNAZ and radiation” value is listed as “synergistically induced intracellular ROS generation”; the “production of ROS” value is “dose, time and cell line dependent”; the “time of peak ROS production” value was determined as 24 h. In the experiment with HL60 bcl-2 cells [1], the apoptosis was found to be 78% and the “apoptotic cell death, peak” value is reported as roughly 40%. The bcl-2 protein expression result in the experiment on bcl-2 protein was “inhibited bcl-2 protein expression in both neo and bcl-2 cells in a dose-dependent manner”. Further, in the experiment with HL60 neo cells [2], the apoptosis was 95% and the “apoptotic cell death, peak” value was roughly 40%. Also, the “sensitivity of HL60 bcl-2 cells compared with neo cells” value in the experiment with HL60 bcl-2 cells [3] is “as sensitive as neo cells”. For the same compound, the inhibition at 5 µM in the experiment with HL60 bcl-2 cells [3] (Homo sapiens, HL-60, 240 h, read-out: inhibition of cell growth) is greater than 95%. The inhibition at 5 µM in the experiment with HL60 neo cells [4] is greater than 95%.
